Melting point and EC50 data for five compounds are collected here from US7399775B2, “β-amyloid protein production/secretion inhibitor” (Daiichi Pharmaceutical Co., Ltd., priority 2001, dated 2008).

The subject of series [1] is β-amyloid protein (Aβ) production/secretion in E35 cells (H4 cells transfected with APP751). The series is described as follows: Cell-based assay for inhibition of production or secretion of β-amyloid protein (sandwich ELISA of Aβ in culture medium). Details: species or system human. The settings on record: Homo sapiens, 24 h, 24 h with compound, Aβ in medium by sandwich ELISA, read-out: Activity (EC50 class, inhibition of Aβ secreted in culture medium). Here is the method: Cell-Based Assay for Screening of a Compound Which Inhibits Production or Secretion of β-Amyloid Protein
E35 cells which were established by transfecting APP751 gene which is a wild type human β-amyloid protein precursor into human glioma cells (H4 cells), were used to analyze inhibitory activity of a compound against β-amyloid production. The amount of β protein (Aβ) secreted in a culture medium was measured by the sandwich enzyme-linked imunosorbent assay.
E35 cells were seeded in Dulbecco's Modified Eagle's Medium containing 10% inactivated fetal bovine serum on 96-well plates and cultured in humidified air and 5% CO2 at 37° C. in a CO2 incubator. Twenty-four hours after seeding of the cells, a test compound dissolved in DMSO was added to the medium. The DMSO solution of the compound was prepared so as to give the final concentration of DMSO in the medium 0.05%. The cells were cultured for additional twenty-four hours, and then the cultured medium was collected. The medium collected was applied to a 96-well ELISA plate on which a monoclonal antibody 25-1, which recognized Aβ25-35, was immobilized, followed by the incubation at 4° C. for 16 to 20 hours. After washing with a phosphate buffer (pH 7.4), a biotinylated monoclonal antibody MA32-40, which recognizes Aβ1-8, was added to the plate, and the plate was incubated at 4° C. for 2 hours. Then alkaline phosphatase-conjugated streptavidin was added to the plate. Alkaline phosphatase activity was measured by a […] assay using BlouPhos (manufactured by KPL) as a substrate. An amount of Aβ in the medium was calculated using a calibration curve separately created. EC50 of the test compound was presented as the concentration that gives 50% inhibitory activity compared to the control cells which were not treated with the compound.
A general note: In an ELISA, binding on a coated surface is turned into a signal by an enzyme label.

pEC50: −log10 of the molar value.

The melting point is the temperature of the solid-liquid transition. For orientation: pEC50 means −log10 of the EC50, conventionally taken in molar units. In the case of `O=S(=O)(c1ccc(Cl)cc1)C(c1cc(F)ccc1F)c1ccncc1Cl` (stereo not shown) [Example 343, 3-Chloro-4-[(4-chlorophenylsulfonyl)-(2,5-difluorophenyl)methyl]pyridine], the melting point fell in the range of 160 to 161 °C. The pEC50 in series [1] was at least 7.30.
Taken in the same sequence, the figures for `O=S(=O)(c1ccc(Cl)cc1)C(c1cc(F)ccc1F)c1cc(N2CCC(O)CC2)ncc1Cl` (stereo not shown) [Example 404, 5-Chloro-4-[(4-chlorophenylsulfonyl)-(2,5-difluorophenyl)methyl]-2-(4′-hydroxypiperidin-1′-yl)pyridine] were 146 to 148 °C and at least 7.30.
The corresponding values for `O=S(=O)(c1ccc(Cl)cc1)C(c1cc(F)ccc1F)C1CCOCC1` (stereo not shown) [Example 287, 4-[[(4-Chlorophenyl)sulfonyl](2,5-difluorophenyl)methyl]tetrahydropyran] are 150 to 152 °C and 6.30 to 7.30.
For the compound `O=S(=O)(c1ccc(Cl)cc1)C(c1ccc(C2OCCO2)cn1)c1cc(F)ccc1F` (stereo not shown) [Example 330, 2-[(4-Chlorophenylsulfonyl)-(2,5-difluorophenyl)methyl]-5-(1,3-dioxolan-2-yl)pyridine], the melting point was in the range of 167 to 168 °C. In series [1], the pEC50 is 6.30 to 7.30.
The corresponding values for `O=S(=O)(c1ccc(Cl)cc1)C(c1cc(F)ccc1F)C1CCCCC1` (stereo not shown) [Example 36, 2-[[(4-Chlorophenyl)sulfonyl](cylcohexyl)methyl]-1,4-difluorobenzene] are 107 to 109 °C and 6.30 to 7.30.
